{
  "source": "patent US20230339991A1",
  "about": "“HYPOXIA-ACTIVATED DNA ALKYLATING AGENT AND MEDICAL USE THEREOF” (ASCENTAWITS PHARMACEUTICALS, LTD., priority 2020, published 2023)",
  "key": {"[1]": {"experiment": "Blood-brain barrier experiment, brain and plasma concentrations after IV dosing", "format": "in vivo, CD-1 mice", "details": "for half-life: read-out: T½ (converted)", "experimental": "Three CD-1 […] were administered 1 mg/kg of the test compound intravenously at each time point. Blood and brain tissue were collected at 5 min, 15 min, 1 h, 2 h, 4 h and 8 h after administration."}, "[2]": {"target": "T1, CYP450R enzyme (Homo sapiens, UniProt P16435)", "T1 sequence (P16435 1-677)": "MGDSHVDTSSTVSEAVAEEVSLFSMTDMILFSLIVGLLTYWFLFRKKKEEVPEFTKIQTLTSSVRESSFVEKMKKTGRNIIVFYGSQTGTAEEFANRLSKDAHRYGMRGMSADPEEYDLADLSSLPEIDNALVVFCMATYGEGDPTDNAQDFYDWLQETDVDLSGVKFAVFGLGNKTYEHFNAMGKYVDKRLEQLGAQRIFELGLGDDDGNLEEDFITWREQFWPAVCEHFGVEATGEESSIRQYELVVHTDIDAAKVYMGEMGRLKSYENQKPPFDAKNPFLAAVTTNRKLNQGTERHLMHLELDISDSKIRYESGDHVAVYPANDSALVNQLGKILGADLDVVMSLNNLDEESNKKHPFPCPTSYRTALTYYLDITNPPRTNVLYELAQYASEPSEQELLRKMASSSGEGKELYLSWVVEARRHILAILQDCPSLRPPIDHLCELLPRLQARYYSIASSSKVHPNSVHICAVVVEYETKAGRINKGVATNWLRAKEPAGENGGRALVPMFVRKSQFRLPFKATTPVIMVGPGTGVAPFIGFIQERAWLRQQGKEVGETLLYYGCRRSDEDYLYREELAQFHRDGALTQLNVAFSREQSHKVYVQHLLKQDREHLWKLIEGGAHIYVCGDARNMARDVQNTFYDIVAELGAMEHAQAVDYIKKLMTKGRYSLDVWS", "experiment": "Hypoxia-dependent reduction experiments", "format": "biochemical", "experimental": "The ingredients were added to each test tube without the addition of NADPH. Then 50 μl of sample from condition B was transferred to 100 μl acetonitrile (T=0). For samples to be tested under hypoxic conditions, the test tubes were placed in an hypoxic chamber (BACTRON anaerobic/environmental chamber). The reaction was initiated by adding NADPH to test tubes A and C and the sample was then placed at 37° C. For samples to be tested in air, the test tubes were placed in a hot plate at 37° C. After 30 minutes and 2 hours of incubation, 50 μl of samples were taken from each test tube and mixed with 100 μl acetonitrile. Any protein precipitate was removed by spinning all test tubes and placed into HPLC vials for analysis. The results were compared to the calibration curve of the real standard."}, "[3]": {"experiment": "Plasma stability, mouse", "format": "in vitro ADME", "experimental": "The pH of the plasma was checked and recorded. Note: a.\nThe final concentration of solvent was 0.5%.\nThe assay is performed in duplicate."}, "[4]": {"details": "CD-1, mouse, plasma, IV 1 mg/kg"}, "[5]": {"details": "IV 1 mg/kg, 0.083 h, single animals, 1 mg/kg"}, "[6]": {"details": "IV 1 mg/kg, 0.25 h, single animals, 1 mg/kg"}, "[7]": {"details": "IV 1 mg/kg, 1 h, single animals, 1 mg/kg"}, "[8]": {"details": "IV 1 mg/kg, 2 h, single animals, 1 mg/kg"}, "[9]": {"details": "IV 1 mg/kg, 4 h, single animals, 1 mg/kg"}, "[10]": {"details": "IV 1 mg/kg, 8 h, single animals"}},
  "note": "Where “and” joins values, the source holds several entries; their conditions need not be identical. Equal values may be shown once. Read-outs that look alike come from different tables or passages of the source.",
  "data": [
    {"compound": "O=[N+]([O-])c1ccc([C@H](OP(=O)(N2CC2)N2CC2)C(F)(F)F)c2ccccc12", "note": "[Compound B]", "values": [
      {"measurement": "concentration at 0.083 h", "setting": "[1]; CD-1, mouse, brain, iv, 1 mg/kg, IV 1 mg/kg, 0.083 h, single animals, read-out: Brain concentration", "value": 992, "unit": "ng/g"},
      {"measurement": "concentration at 0.25 h", "setting": "[1]; CD-1, mouse, brain, iv, 1 mg/kg, IV 1 mg/kg, 0.25 h, single animals, read-out: Brain concentration", "value": 499, "unit": "ng/g"},
      {"measurement": "concentration at 1 h", "setting": "[1]; CD-1, mouse, brain, iv, 1 mg/kg, IV 1 mg/kg, 1 h, single animals, read-out: Brain concentration", "value": 88.1, "unit": "ng/g"},
      {"measurement": "concentration at 2 h", "setting": "[1]; CD-1, mouse, brain, iv, 1 mg/kg, IV 1 mg/kg, 2 h, single animals, read-out: Brain concentration", "value": 9, "unit": "ng/g"},
      {"measurement": "concentration at 4 h", "setting": "[1]; CD-1, mouse, brain, iv, 1 mg/kg, IV 1 mg/kg, 4 h, single animals", "value": 1.34, "unit": "ng/g"},
      {"measurement": "Kp at 0.083 h", "setting": "[1]; CD-1, mouse, brain/plasma, iv, 1 mg/kg, IV 1 mg/kg, 0.083 h, read-out: Mean Ratio (Brain/Plasma)", "value": 2.25},
      {"measurement": "Kp at 0.083 h", "setting": "[1]; CD-1, mouse, brain/plasma, iv, 1 mg/kg, IV 1 mg/kg, 0.083 h, single animals, read-out: Ratio (Brain/Plasma)", "value": 2.18},
      {"measurement": "Kp at 0.25 h", "setting": "[1]; CD-1, mouse, brain/plasma, iv, 1 mg/kg, IV 1 mg/kg, 0.25 h, single animals, read-out: Ratio (Brain/Plasma)", "value": 1.47},
      {"measurement": "Kp at 1 h", "setting": "[1]; CD-1, mouse, brain/plasma, iv, 1 mg/kg, IV 1 mg/kg, 1 h, read-out: Mean Ratio (Brain/Plasma)", "value": 1.39},
      {"measurement": "Kp at 1 h", "setting": "[1]; CD-1, mouse, brain/plasma, iv, 1 mg/kg, IV 1 mg/kg, 1 h, single animals, read-out: Ratio (Brain/Plasma)", "value": 1.26},
      {"measurement": "Kp at 2 h", "setting": "[1]; CD-1, mouse, brain/plasma, iv, 1 mg/kg, IV 1 mg/kg, 2 h, read-out: Mean Ratio (Brain/Plasma)", "value": 1.34},
      {"measurement": "Kp at 4 h", "setting": "[1]; CD-1, mouse, brain/plasma, iv, 1 mg/kg, IV 1 mg/kg, 4 h, single animals, read-out: Ratio (Brain/Plasma)", "value": 1.19},
      {"measurement": "Kp", "setting": "[1]; CD-1, mouse, brain/plasma, iv, 1 mg/kg, IV 1 mg/kg, read-out: AUClnf Ratio (Brain/Plasma)", "value": 1.49},
      {"measurement": "concentration at 0.083 h", "setting": "[1]; CD-1, mouse, plasma, iv, 1 mg/kg, IV 1 mg/kg, 0.083 h, single animals, read-out: Plasma concentration", "value": 454, "unit": "ng/mL"},
      {"measurement": "concentration at 0.25 h", "setting": "[1]; CD-1, mouse, plasma, iv, 1 mg/kg, IV 1 mg/kg, 0.25 h, single animals, read-out: Plasma concentration", "value": 341, "unit": "ng/mL"},
      {"measurement": "concentration at 1 h", "setting": "[1]; CD-1, mouse, plasma, iv, 1 mg/kg, IV 1 mg/kg, 1 h, single animals, read-out: Plasma concentration", "value": 70, "unit": "ng/mL"},
      {"measurement": "concentration at 2 h", "setting": "[1]; CD-1, mouse, plasma, iv, 1 mg/kg, IV 1 mg/kg, 2 h, single animals, read-out: Plasma concentration", "value": 8.54, "unit": "ng/mL"},
      {"measurement": "half-life", "setting": "[1]; CD-1, mouse, brain tissue, IV 1 mg/kg", "value": 19.8, "unit": "min"},
      {"measurement": "AUC(0-t)", "setting": "[1]; [4]", "value": 289, "unit": "ng·h/mL"},
      {"measurement": "C0", "setting": "[1]; [4]", "value": 532, "unit": "ng/mL"},
      {"measurement": "half-life", "setting": "[1]; [4]", "value": 27, "unit": "min"},
      {"measurement": "Brain concentration", "setting": "[1]; [5]", "value": "1038.97 ng/g and 916.57 ng/g"},
      {"measurement": "Plasma concentration", "setting": "[1]; [5]", "value": "485.00 ng/mL and 393.31 ng/mL"},
      {"measurement": "Ratio (Brain/Plasma)", "setting": "[1]; [5]", "value": "2.23 and 2.33"},
      {"measurement": "Brain concentration", "setting": "[1]; [6]", "value": "480.24 ng/g and 420.87 ng/g"},
      {"measurement": "Plasma concentration", "setting": "[1]; [6]", "value": "289.25 ng/mL and 256.49 ng/mL"},
      {"measurement": "Ratio (Brain/Plasma)", "setting": "[1]; [6]", "value": "1.66 and 1.64"},
      {"measurement": "Brain concentration", "setting": "[1]; [7]", "value": "104.66 ng/g and 103.20 ng/g"},
      {"measurement": "Plasma concentration", "setting": "[1]; [7]", "value": "87.46 ng/mL and 75.23 ng/mL"},
      {"measurement": "Ratio (Brain/Plasma)", "setting": "[1]; [7]", "value": "1.55 and 1.37"},
      {"measurement": "Brain concentration", "setting": "[1]; [8]", "value": "13.14 ng/g and 15.08 ng/g"},
      {"measurement": "Plasma concentration", "setting": "[1]; [8]", "value": "9.83 ng/mL and 11.45 ng/mL"},
      {"measurement": "Ratio (Brain/Plasma)", "setting": "[1]; [8]", "value": 1.32},
      {"measurement": "Brain concentration", "setting": "[1]; [9]", "value": "BLOQ"},
      {"measurement": "Plasma concentration", "setting": "[1]; [9]", "value": "1.13 ng/mL and 0.52 ng/mL and 0.28 ng/mL"},
      {"measurement": "Brain concentration", "setting": "[1]; [10]", "value": "BLOQ"},
      {"measurement": "Plasma concentration", "setting": "[1]; [10]", "value": "BLOQ"},
      {"measurement": "AUClast", "setting": "[1]; brain tissue, IV 1 mg/kg", "value": 429.34, "unit": "ng·h/g"},
      {"measurement": "AUClnf", "setting": "[1]; brain tissue, IV 1 mg/kg", "value": 435.32, "unit": "ng·h/g"},
      {"measurement": "MRTlnf_obs", "setting": "[1]; brain tissue, IV 1 mg/kg", "value": 24.6, "unit": "min"},
      {"measurement": "blood-brain barrier penetration", "setting": "[1]; detected in brain tissue", "value": "can penetrate the blood-brain barrier"},
      {"measurement": "Cl_obs", "setting": "[1]; plasma, IV 1 mg/kg", "value": 57.63, "unit": "mL/min/kg"},
      {"measurement": "MRTlnf_obs", "setting": "[1]; plasma, IV 1 mg/kg", "value": 27.6, "unit": "min"},
      {"measurement": "Vss_obs", "setting": "[1]; plasma, IV 1 mg/kg", "value": 1.59, "unit": "L/kg"}
    ]},
    {"compound": "O=[N+]([O-])c1ccc(C(OP(=O)(N2CC2)N2CC2)C(F)(F)F)c2ccccc12", "note": "(racemic) [Compound A]", "values": [
      {"measurement": "reduction rate compared (compound A vs TH-302)", "setting": "[2]; NADPH and CYP 450R enzymes", "value": "similar"},
      {"measurement": "hypoxia-dependent reduction reaction", "setting": "[2]; in the presence of NADPH and CYP 450R enzymes, 37° C.", "value": "showed a hypoxia-dependent reduction reaction"},
      {"measurement": "Remaining percentage (%)", "setting": "[3]; Mouse plasma, 15 min", "value": "104 ± 2.96", "unit": "%"},
      {"measurement": "Remaining percentage (%)", "setting": "[3]; Mouse plasma, 60 min", "value": "86.6 ± 3.16", "unit": "%"},
      {"measurement": "Remaining percentage (%)", "setting": "[3]; Mouse plasma, 90 min", "value": "76.9 ± 2.40", "unit": "%"},
      {"measurement": "Remaining percentage (%)", "setting": "[3]; Mouse plasma, 120 min", "value": "66.4% and 66.4 ± 0.993%"},
      {"measurement": "Remaining percentage (%)", "setting": "[3]; Mouse plasma, 2 h time course, 0 min", "value": 100, "unit": "%"},
      {"measurement": "Remaining percentage", "setting": "[3]; Mouse plasma, after 30 minutes", "value": 55.07, "unit": "%"},
      {"measurement": "half-life at 5 µM", "setting": "[3]; Mouse plasma, in vitro, read-out: t½", "value": 189, "unit": "min"},
      {"measurement": "Remaining percentage (%)", "setting": "[3]; Mouse plasma, time course, 30 min", "value": "97.7 ± 4.71", "unit": "%"},
      {"measurement": "plasma stability", "setting": "[3]; mouse plasma", "value": "unstable"}
    ]}
  ]
}
